Test results reported in DBAASP.
In brackets after ≈: the same amount, converted by molar mass. Each block holds one compound with its values, some of them ahead of it.

Tests used:
Test in all cases: ≥ marks a high value that may be exact or a test limit, other limits are often not marked, values filed in µg/mL are converted to µM
Enterobacter cloacae = test system: Enterobacter cloacae
[1] = test system: Candida albicans ATCC 90028
Escherichia coli = test system: Escherichia coli
[2] = test system: Pseudomonas aeruginosa ATCC 27853
Staphylococcus aureus = test system: Staphylococcus aureus
Bacillus subtilis = test system: Bacillus subtilis
[3] = test system: Staphylococcus aureus ATCC 25923
Pseudomonas aeruginosa = test system: Pseudomonas aeruginosa
[4] = test system: Escherichia coli ATCC 25922
[5] = test system: Salmonella enterica subsp. enterica serovar Typhi
Shigella flexneri = test system: Shigella flexneri
[6] = test system: Bacillus subtilis ATCC 6633
Streptococcus agalactiae = test system: Streptococcus agalactiae
[7] = test system: Listeria monocytogenes ATCC 7644
[8] = test system: Salmonella enterica subsp. enterica serovar Typhi ATCC 6399
[9] = test system: Staphylococcus aureus ATCC 29737
[10] = test system: Staphylococcus aureus USA 300
[11] = test system: Pseudomonas aeruginosa ATCC 9027
[12] = test system: Candida albicans ATCC 64550
[13] = test system: Staphylococcus aureus USA 100
[14] = test system: Staphylococcus epidermidis ATCC 12228
Escherichia coli W160-37 = test system: Escherichia coli W160-37
[15] = test system: Micrococcus luteus ATCC 4698
[16] = test system: Stenotrophomonas maltophilia B32/4
[17] = test system: Acinetobacter baumannii NM8
[18] = test system: Escherichia coli ATCC 25726
[19] = test system: Stenotrophomonas maltophilia B32/1
[20] = test system: Acinetobacter baumannii NM35
[21] = test system: Staphylococcus aureus 127/08
Escherichia coli DC2 = test system: Escherichia coli DC2
[22] = test system: Staphylococcus epidermidis C621
Escherichia coli UB1005 = test system: Escherichia coli UB1005
[23] = test system: Corynebacterium xerosis C875

Structure (SMILES): CC[C@H](C)[C@H](NC(=O)[C@H](CC(C)C)NC(=O)[C@H](CCCCN)NC(=O)[C@H](CC(C)C)NC(=O)[C@H](C)NC(=O)CNC(=O)[C@H](CCCCN)NC(=O)[C@H](C)NC(=O)[C@H](CC(C)C)NC(=O)[C@H](C)NC(=O)CNC(=O)[C@H](Cc1c[nH]c2ccccc12)NC(=O)[C@@H](N)Cc1ccccc1)C(=O)NCC(=O)N[C@H](C(=O)NCC(=O)N[C@@H](CO)C(=O)N[C@@H](CC(C)C)C(=O)N[C@@H](Cc1ccccc1)C(=O)N[C@@H](CO)C(=O)N[C@@H](CO)C(=O)N[C@@H](Cc1ccccc1)C(=O)N[C@@H](CO)C(=O)N[C@@H](CCCCN)C(=O)N[C@@H](CCCCN)C(=O)N[C@@H](CC(=O)O)C(=O)O)C(C)C [FWGALAKGALKLIGVGSLFSSFSKKD]
MIC (Shigella flexneri): ≥ 37.5 µM
MIC [6]: ≥ 37.5 µM
MIC (Streptococcus agalactiae): ≥ 37.5 µM
MIC [7]: ≥ 37.5 µM
MIC [3]: 75 µM (≈ 205 µg/mL)
MIC [4]: 37.5 µM (≈ 102 µg/mL)
MIC [8]: ≥ 37.5 µM

Structure (SMILES): CC[C@H](C)[C@H](N)C(=O)N[C@@H](CCCCN)C(=O)N[C@H](C(=O)N[C@@H](CCCCN)C(=O)N[C@H](C(=O)N[C@@H](CCCCN)C(=O)N[C@H](C(=O)N[C@@H](CCCCN)C(N)=O)[C@@H](C)CC)[C@@H](C)CC)[C@@H](C)CC [IKIKIKIK]
MIC [9]: ≥ 127 µM
MIC [1]: 1.56 µM (≈ 1.53 µg/mL)
MIC [10]: 25 µM (≈ 24.6 µg/mL)
MIC [11]: 6.25 µM (≈ 6.14 µg/mL)
MIC [12]: 3.13 µM (≈ 3.07 µg/mL)
MIC [13]: 25 µM (≈ 24.6 µg/mL)
MIC [4]: 31.8 µM (≈ 31.3 µg/mL)
MIC [14]: 2.03 µM (≈ 2 µg/mL)

Structure (SMILES): CC[C@H](C)[C@@H]1NC(=O)[C@H](CCCCN)NC(=O)[C@@H](NC(=O)[C@H](C)NC(=O)[C@@H](NC(=O)[C@H](CC(C)C)NC(=O)[C@H](CC(=O)O)NC(=O)[C@@H](NC(=O)CNC(=O)[C@H](CC(C)C)NC(=O)[C@H](CCCCN)NC(=O)[C@H](C)NC(=O)[C@H](CC(C)C)NC(=O)[C@H](CC(=O)O)NC(=O)[C@H](CCCCN)NC(=O)CNC(=O)[C@H](CC(C)C)NC(=O)CN)C(C)C)C(C)C)CSSC[C@@H](C(=O)O)NC(=O)[C@H](CCC(N)=O)NC(=O)[C@H](CCCCN)NC(=O)[C@H](CO)NC1=O [GLGKDLAKLGVDLVACKISKQC]
MIC [16]: ≥ 200 µM
MIC [17]: ≥ 200 µM
MIC [18]: ≥ 200 µM
MIC [3]: > 200 µM
MIC [19]: ≥ 200 µM
MIC [20]: ≥ 200 µM
MIC [21]: ≥ 200 µM

Structure (SMILES): CC(C)C[C@H](NC(=O)[C@H](CCCCN)NC(=O)[C@H](CCCCN)NC(=O)[C@H](Cc1ccccc1)NC(=O)[C@H](Cc1ccccc1)NC(=O)[C@H](CCCCN)NC(=O)[C@H](CCCCN)NC(=O)[C@H](C)NC(=O)[C@H](CCCN=C(N)N)NC(=O)[C@@H](N)CCCCN)C(=O)N[C@@H](CCCCN)C(N)=O [KRAKKFFKKLK]
MIC [12]: ≥ 100 µM

Structure (SMILES): C[C@H](NC(=O)[C@H](C)NC(=O)[C@H](C)NC(=O)[C@H](Cc1c[nH]c2ccccc12)NC(=O)[C@H](Cc1ccccc1)NC(=O)[C@H](C)NC(=O)[C@H](C)NC(=O)[C@H](C)NC(=O)[C@H](C)NC(=O)[C@H](CCCCN)NC(=O)[C@H](CCCCN)NC(=O)[C@H](CCCCN)NC(=O)[C@H](CCCCN)NC(=O)[C@H](CCCCN)NC(=O)[C@@H](N)CCCCN)C(=O)N[C@@H](C)C(=O)N[C@@H](Cc1ccccc1)C(N)=O [KKKKKKAAAAFWAAAAF]
MIC (Escherichia coli DC2): 0.5 µM (≈ 0.918 µg/mL)
MIC [22]: 8 µM (≈ 14.7 µg/mL)
MIC [2]: 16 µM (≈ 29.4 µg/mL)
MIC (Escherichia coli UB1005): 2 µM (≈ 3.67 µg/mL)
MIC [23]: 0.5 µM (≈ 0.918 µg/mL)
MIC [4]: 16 µM (≈ 29.4 µg/mL)

Structure (SMILES): CC[C@H](C)[C@H](N)C(=O)N[C@@H](C)C(=O)N[C@@H](CCC(N)=O)C(=O)N[C@@H](CCC(N)=O)C(=O)N[C@@H](C)C(=O)N[C@@H](C)C(=O)N[C@@H](CC(N)=O)C(=O)N[C@H](C(=O)N[C@@H](C)C(=O)N[C@@H](C)C(=O)N[C@H](C(=O)N[C@@H](C)C(=O)N[C@@H](CCCN=C(N)N)C(=O)NCC(=O)O)[C@@H](C)O)C(C)C [IAQQAANVAATARG]
MIC [15]: 8.84 µM (≈ 11.9 µg/mL)

Now from value to compound:

MIC (Enterobacter cloacae): ≥ 55.4 µM
MIC [1]: 27.7 µM (≈ 64 µg/mL)
MIC (Escherichia coli): 55.4 µM (≈ 128 µg/mL)
MIC [2]: 27.7 µM (≈ 64 µg/mL)
MIC (Staphylococcus aureus): 55.4 µM (≈ 128 µg/mL)
MIC (Bacillus subtilis): 27.7 µM (≈ 64 µg/mL)
MIC [3]: 1.73 µM (≈ 4 µg/mL)
MIC (Pseudomonas aeruginosa): 3.46 µM (≈ 8 µg/mL)
MIC [4]: 6.93 µM (≈ 16 µg/mL)
MIC [5]: 0.866 µM (≈ 2 µg/mL)
Structure (SMILES): CC(C)C[C@H](NC(=O)[C@H](CCCCN)NC(=O)[C@H](CCCN=C(N)N)NC(=O)[C@H](Cc1ccccc1)NC(=O)[C@H](Cc1ccccc1)NC(=O)[C@H](CCCCN)NC(=O)[C@H](CCCCN)NC(=O)[C@H](Cc1ccccc1)NC(=O)[C@H](CCCN=C(N)N)NC(=O)[C@H](CCCCN)NC(=O)[C@@H](NC(=O)[C@@H](N)CC(C)C)C(C)C)C(=O)N[C@@H](CCCCN)C(=O)N[C@@H](CCCCN)C(=O)N[C@@H](CO)C(=O)N[C@H](C(=O)N[C@@H](CCCCN)C(=O)N[C@@H](CCCCN)C(N)=O)C(C)C [LVKRFKKFFRKLKKSVKK]

MIC (Enterobacter cloacae): 14.7 µM (≈ 32 µg/mL)
MIC [1]: 14.7 µM (≈ 32 µg/mL)
MIC (Escherichia coli): 14.7 µM (≈ 32 µg/mL)
MIC [2]: 29.3 µM (≈ 64 µg/mL)
MIC (Staphylococcus aureus): 58.7 µM (≈ 128 µg/mL)
MIC (Bacillus subtilis): 14.7 µM (≈ 32 µg/mL)
MIC [3]: 117 µM (≈ 256 µg/mL)
MIC (Pseudomonas aeruginosa): 1.83 µM (≈ 4 µg/mL)
MIC [4]: 117 µM (≈ 256 µg/mL)
MIC [5]: 0.917 µM (≈ 2 µg/mL)
Structure (SMILES): CC(C)C[C@H](NC(=O)[C@H](CCCCN)NC(=O)[C@H](CCCN=C(N)N)NC(=O)[C@H](Cc1ccccc1)NC(=O)[C@H](Cc1ccccc1)NC(=O)[C@H](CCCCN)NC(=O)[C@H](CCCCN)NC(=O)[C@H](Cc1ccccc1)NC(=O)[C@H](CCCN=C(N)N)NC(=O)[C@H](CCCCN)NC(=O)[C@@H](NC(=O)[C@@H](N)CC(C)C)C(C)C)C(=O)N[C@@H](CCCCN)C(=O)N[C@@H](CCCCN)C(=O)N[C@@H](CO)C(=O)N[C@H](C(=O)N[C@@H](CCCCN)C(N)=O)C(C)C [LVKRFKKFFRKLKKSVK]

MIC (Staphylococcus aureus): 14 µM (≈ 20.2 µg/mL)
MIC (Escherichia coli W160-37): 25 µM (≈ 36.1 µg/mL)
Structure (SMILES): CC[C@H](C)[C@H](NC(=O)[C@H](Cc1c[nH]c2ccccc12)NC(=O)[C@H](CCCCN)NC(=O)[C@H](CC(C)C)NC(=O)[C@H](Cc1ccccc1)NC(=O)[C@@H](NC(=O)[C@H](CCCCN)NC(=O)[C@H](CC(C)C)NC(=O)[C@H](CC(C)C)NC(=O)[C@H](CCCCN)NC(=O)[C@@H]1CCCN1)[C@@H](C)O)C(=O)NCC(=O)O [PKLLKTFLKWIG]

MIC [15]: ≥ 75 µM
Structure (SMILES): NCCCC[C@H](NC(=O)[C@H](CO)NC(=O)[C@H](Cc1cnc[nH]1)NC(=O)[C@H](CCCN=C(N)N)NC(=O)[C@H](Cc1cnc[nH]1)NC(=O)[C@H](CO)NC(=O)[C@H](CCC(N)=O)NC(=O)[C@H](Cc1ccc(O)cc1)NC(=O)[C@@H](N)CC(N)=O)C(=O)N[C@@H](CO)C(=O)O [NYQSHRHSKS]
